Molecular target: T1, TβR (GST-ALK5) (Homo sapiens, UniProt P36897)
T1 sequence (P36897 34-503): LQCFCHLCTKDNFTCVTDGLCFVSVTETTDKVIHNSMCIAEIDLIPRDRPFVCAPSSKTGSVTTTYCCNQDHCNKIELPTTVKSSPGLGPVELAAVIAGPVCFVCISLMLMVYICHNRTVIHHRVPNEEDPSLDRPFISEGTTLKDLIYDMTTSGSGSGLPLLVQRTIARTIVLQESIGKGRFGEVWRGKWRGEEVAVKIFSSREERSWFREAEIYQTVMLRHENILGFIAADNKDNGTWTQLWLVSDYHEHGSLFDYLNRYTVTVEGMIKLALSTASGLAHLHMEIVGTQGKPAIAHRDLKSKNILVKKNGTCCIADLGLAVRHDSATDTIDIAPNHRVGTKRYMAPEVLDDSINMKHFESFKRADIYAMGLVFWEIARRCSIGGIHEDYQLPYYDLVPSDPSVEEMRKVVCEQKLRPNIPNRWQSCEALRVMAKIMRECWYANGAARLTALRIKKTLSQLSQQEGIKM
Assay: In-vitro (enzyme) flashplate kinase assay, TβR activity
Assay type: biochemical
Conditions: GST-ALK5, GST-SMAD2 substrate, 3 mM ATP
Protocol: In-Vitro (Enzyme) Assay for Determination of the Efficacy of Inhibitors of the Inhibition of TGF-Beta-Mediated Effects
The kinase assay was carried out as 384-well flashplate assay. […] The reaction was stopped using 25 μl of 200 mM EDTA solution, filtered with suction at room temperature after 30 min, and the wells were washed with 3 times 100 μl of 0.9% NaCl solution. Radioactivity was measured in the TopCount. The IC50 values were calculated using RS1. Above and below, all temperatures were indicated in ° C.

| IC50 | SMILES |
| --- | --- |
| < 500 nM | Fc1ccc(Cl)cc1-c1cc(Nc2ccncn2)c2ccccc2n1 [compound 003] |
| > 10000 nM | Fc1ccc(Cl)cc1-c1cc(Cc2ccncc2)c2ccccc2n1 [compound 004] |
| > 10000 nM | Fc1ccc(Cl)cc1-c1cc(Nc2ccccn2)c2ccccc2n1 [compound 005] |
| > 10000 nM | Fc1ccc(Cl)cc1-c1cc(Oc2ccncc2)c2ccccc2n1 [compound 006] |
| 500 to 1000 nM | CN(c1ccncc1)c1cc(-c2cc(Cl)ccc2F)nc2ccccc12 [compound 007] |
| < 500 nM | Fc1ccc(Cl)cc1-c1cc(Nc2ccncc2C(F)(F)F)c2ccccc2n1 [compound 008] |
| 1000 to 10000 nM | O=C(Nc1cc(-c2cc(Cl)ccc2F)nc2ccccc12)c1ccncc1 [compound 009] |
| 1000 to 10000 nM | O=C(Nc1cc(-c2cc(Cl)ccc2F)nc2ccccc12)c1cccnc1 [compound 010] |
| 1000 to 10000 nM | Fc1ccc(Cl)cc1-c1cc(Sc2ccncc2)c2ccccc2n1 [compound 011] |
| > 10000 nM | Fc1ccc(Cl)cc1-c1cc(Nc2cccnc2)c2ccccc2n1 [compound 012] |
| < 500 nM | Fc1ccc(Cl)cc1-c1cc(Nc2ccnc3ccccc23)c2ccccc2n1 [compound 013] |
| < 500 nM | Fc1ccc(Cl)cc1-c1cc(-n2ccc3cnccc32)c2ccccc2n1 [compound 014] |
| > 10000 nM | CN1CCN(c2nccc(Nc3cc(-c4cc(Cl)ccc4F)nc4ccccc34)n2)CC1 [compound 015] |
| < 500 nM | Fc1ccc(Cl)cc1-c1cc(Nc2cn[nH]c2)c2ccccc2n1 [compound 016] |
| 1000 to 10000 nM | Fc1ccc(Cl)cc1-c1cc(N(c2ccncn2)c2cc(-c3cc(Cl)ccc3F)nc3ccccc23)c2ccccc2n1 [compound 017] |
| 1000 to 10000 nM | O=[N+]([O-])c1cnccc1Nc1cc(-c2cc(Cl)ccc2F)nc2ccccc12 [compound 018, [2-(5-Chloro-2-fluoro-phenyl)-quinolin-4-yl]-(3-nitro-pyridin-4-yl)-amine] |
| < 500 nM | Nc1cnccc1Nc1cc(-c2cc(Cl)ccc2F)nc2ccccc12 [compound 019] |
| < 500 nM | Fc1ccc(Cl)cc1-c1cc(Nc2ccnnc2)c2ccccc2n1 [compound 020] |
| 1000 to 10000 nM | Fc1ccc(Cl)cc1-c1cc(Nc2ccnc(Cl)c2)c2ccccc2n1 [compound 021] |
| 1000 to 10000 nM | Fc1ccc(Cl)cc1-c1cc(Nc2ccnc(N(c3ccnc(Cl)c3)c3cc(-c4cc(Cl)ccc4F)nc4ccccc34)c2)c2ccccc2n1 [compound 022] |
| < 500 nM | O=c1[nH]c2cnccc2n1-c1cc(-c2cc(Cl)ccc2F)nc2ccccc12 [compound 023, N*4*-[2-(5-Chloro-2-fluoro-phenyl)-quinolin-4-yl]-pyridine-3,4-diamine urea] |
| < 500 nM | Fc1ccc(Cl)cc1-c1cc(Nc2ccnc3cccnc23)c2ccccc2n1 [compound 024] |
| < 500 nM | O=S1(=O)Nc2cnccc2N1c1cc(-c2cc(Cl)ccc2F)nc2ccccc12 [compound 025] |
| 500 to 1000 nM | Cc1nc2cnccc2n1-c1cc(-c2cc(Cl)ccc2F)nc2ccccc12 [compound 026] |
| < 500 nM | CN1CCC(C(=O)Nc2cnccc2Nc2cc(-c3cc(Cl)ccc3F)nc3ccccc23)CC1 [compound 027] |

| IC50 | SMILES |
| --- | --- |
| > 10000 nM | CN1CCC(c2nc3cnccc3n2-c2cc(-c3cc(Cl)ccc3F)nc3ccccc23)CC1 [compound 028] |
| > 10000 nM | Nc1ccncc1Nc1cc(-c2cc(Cl)ccc2F)nc2ccccc12 [compound 029] |
| 1000 to 10000 nM | O=S(=O)(CC(F)(F)F)Nc1cnccc1Nc1cc(-c2cc(Cl)ccc2F)nc2ccccc12 [compound 030] |
| < 500 nM | CN(C)C(=O)Nc1cnccc1Nc1cc(-c2cc(Cl)ccc2F)nc2ccccc12 [compound 031] |
| > 10000 nM | Fc1ccc(Cl)cc1-c1cc(Nc2ccnc3[nH]ccc23)c2ccccc2n1 [compound 032] |
| 1000 to 10000 nM | O=C(Nc1cnccc1Nc1cc(-c2cc(Cl)ccc2F)nc2ccccc12)C(F)(F)F [compound 033] |
| 500 to 1000 nM | O=c1[nH]c2cnccc2n1-c1cc(-c2ccccc2F)nc2ccccc12 [compound 034] |
| > 10000 nM | Nc1ccnc(Nc2cc(-c3cc(Cl)ccc3F)nc3ccccc23)c1 [compound 035] |
| > 10000 nM | Fc1ccc(Cl)cc1-c1cc(Nc2cc(Nc3cc(-c4cc(Cl)ccc4F)nc4ccccc34)ncn2)c2ccccc2n1 [compound 036] |
| 1000 to 10000 nM | Nc1cc(N(c2cc(-c3cc(Cl)ccc3F)nc3ccccc23)c2cc(-c3cc(Cl)ccc3F)nc3ccccc23)ncn1 [compound 037] |
| < 500 nM | Nc1cc(Nc2cc(-c3cc(Cl)ccc3F)nc3ccccc23)ncn1 [compound 038] |
| < 500 nM | CCOC(=O)n1c(=O)n(-c2cc(-c3cc(Cl)ccc3F)nc3ccccc23)c2ccncc21 [compound 039] |
| 1000 to 10000 nM | CS(=O)(=O)Nc1cnccc1N(c1cc(-c2cc(Cl)ccc2F)nc2ccccc12)S(C)(=O)=O [compound 040] |
| 1000 to 10000 nM | O=S(=O)(O)Nc1cnccc1Nc1cc(-c2cc(Cl)ccc2F)nc2ccccc12 [compound 041] |
| 500 to 1000 nM | COc1ccc(-c2cc(Nc3ccncc3)c3ccccc3n2)cc1 [compound 042] |
| < 500 nM | Fc1ccc(F)c(-c2cc(Nc3ccncc3)c3ccccc3n2)c1 [compound 043] |
| < 500 nM | Fc1ccccc1-c1cc(Nc2ccncc2)c2ccccc2n1 [compound 044] |
| < 500 nM | Fc1ccccc1-c1cc(Nc2ccncn2)c2ccccc2n1 [compound 045] |
| < 500 nM | Fc1ccccc1-c1cc(Nc2ccncc2C(F)(F)F)c2ccccc2n1 [compound 046] |
| 1000 to 10000 nM | c1ccc2c(Nc3ccncc3)cc(C3CCCCC3)nc2c1 [compound 047] |
| < 500 nM | Clc1ccc(Cl)c(-c2cc(Nc3ccncc3)c3ccccc3n2)c1 [compound 048] |
| 500 to 1000 nM | COc1cccc(-c2cc(Nc3ccncc3)c3ccccc3n2)c1 [compound 049] |
| < 500 nM | Clc1ccccc1-c1cc(Nc2ccncc2)c2ccccc2n1 [compound 050] |
| < 500 nM | FC(F)(F)c1cccc(-c2cc(Nc3ccncc3)c3ccccc3n2)c1 [compound 051] |
| 1000 to 10000 nM | COc1ccccc1-c1cc(Nc2ccncc2)c2ccccc2n1 [compound 052] |

| IC50 | SMILES |
| --- | --- |
| 1000 to 10000 nM | O=c1[nH]c2cnccc2n1-c1c(O)c(-c2cc(Cl)ccc2F)nc2ccccc12 [compound 053] |
| < 500 nM | CN(C)CC(=O)Nc1cnccc1Nc1cc(-c2cc(Cl)ccc2F)nc2ccccc12 [compound 054] |
| 1000 to 10000 nM | N#Cc1cccc(-c2cc(Nc3ccncc3)c3ccccc3n2)c1 [compound 055] |
| < 500 nM | Fc1ccc(C(F)(F)F)cc1-c1cc(Nc2ccncc2)c2ccccc2n1 [compound 056] |
| < 500 nM | c1ccc(-c2cc(Nc3ccncc3)c3ccccc3n2)nc1 [compound 057] |
| > 10000 nM | FC(F)(F)c1ccc(Cl)cc1-c1cc(Nc2ccncc2)c2ccccc2n1 [compound 058] |
| < 500 nM | Clc1cccc(-c2cc(Nc3ccncc3)c3ccccc3n2)c1 [compound 059] |
| > 10000 nM | Fc1ccc(Cl)cc1-c1cc(NCc2ccncc2)c2ccccc2n1 [compound 060] |
| > 10000 nM | CN1CCN(C(=O)Nc2cnccc2N(C(=O)N2CCN(C)CC2)c2cc(-c3cc(Cl)ccc3F)nc3ccccc23)CC1 [compound 061] |
| 500 to 1000 nM | CN1CCN(C(=O)Nc2cnccc2Nc2cc(-c3cc(Cl)ccc3F)nc3ccccc23)CC1 [compound 062] |
| > 10000 nM | Fc1ccc(Cl)cc1-c1cc(Oc2cccnc2)c2ccccc2n1 [compound 063] |
| < 500 nM | CN(C)CCC(=O)Nc1cnccc1Nc1cc(-c2cc(Cl)ccc2F)nc2ccccc12 [compound 064] |
| > 10000 nM | Fc1ccc(Cl)cc1-c1cc(NCc2cccnc2)c2ccccc2n1 [compound 065] |
| > 10000 nM | Cc1cncc(-c2cc(Nc3ccncc3)c3ccccc3n2)c1 [compound 066] |
| 500 to 1000 nM | CN(C)CCCC(=O)Nc1cnccc1Nc1cc(-c2cc(Cl)ccc2F)nc2ccccc12 [compound 067] |
| < 500 nM | Fc1ccc(Cl)cc1-c1cc(Nc2ncnc3ccccc23)c2ccccc2n1 [compound 068] |
| < 500 nM | Fc1ccc(Cl)cc1-c1cc(Nc2ccnc3cc(C(F)(F)F)ccc23)c2ccccc2n1 [compound 069] |
| 1000 to 10000 nM | Fc1ccc(Cl)c(-c2cc(Nc3ccncc3)c3ccccc3n2)c1 [compound 070] |
| > 10000 nM | O=C(O)CCNc1cnccc1Nc1cc(-c2cc(Cl)ccc2F)nc2ccccc12 [compound 071] |
| > 10000 nM | Nc1cnccc1N(CCC(=O)O)c1cc(-c2cc(Cl)ccc2F)nc2ccccc12 [compound 072] |
| < 500 nM | c1ccc(-c2cc(Nc3ccncc3)c3ccccc3n2)cc1 [compound 073] |
| 1000 to 10000 nM | Nc1cnccc1Nc1cc(-c2ccccc2F)nc2ccccc12 [compound 074, N*4*-[2-(2-fluoro-phenyl)-quinolin-4-yl]-pyridine-3,4-diamine] |
| < 500 nM | COc1ccc2c(Nc3cc(-c4cc(Cl)ccc4F)nc4ccccc34)ccnc2c1 [compound 075] |
| 1000 to 10000 nM | CCN(CC)CCNS(=O)(=O)Nc1cnccc1Nc1cc(-c2cc(Cl)ccc2F)nc2ccccc12 [compound 076] |
| < 500 nM | Fc1ccc(Cl)cc1-c1cc(-n2cnc3cnccc32)c2ccccc2n1 [compound 077] |

— patent publication US8987301B2, “Heteroarylaminoquinolines as TGF-beta receptor kinase inhibitors” (Merck Patent GmbH, priority 2009, dated 2015)
